Test results from US20200131249A1, “NOVEL PROTEINS AND USE THEREOF” (EVOLVERITAS KFT., priority 2017, published 2020).
Where no end group is shown, it is not given here.

System: lectin pathway
Assay: Lectin pathway activation tests in rat serum, all three assays (C3, C4, C5b-9 deposition)
Type: biochemical
Details: result in words
Protocol: ELISA-based complement lectin pathway activation tests were performed on mannan coated plates using diluted individual (not pooled) rat serum. In these tests, inhibitory efficiencies of the protein of SEQ ID NO: 14 and SGMI-2 were compared. Three different assays were conducted that detect the deposition of C3, C4 or the terminal complement antigen C5b-9, respectively.
96-well Greiner high binding ELISA plates (cat. no. 655061) were coated with 100 μl/well 10 μg/ml mannan dissolved in coating buffer (50 mM sodium-carbonate pH 9.6) overnight at 4° C. Control wells contained coating buffer alone. Wells were blocked for at least 1 h at 37° C. with 200 μl/well
10 mg/ml bovine serum albumin (BSA) dissolved in 50 mM Tris pH 7.4, 150 mM NaCl, 0.1% Tween-20 buffer. Serial dilutions of the inhibitors were made in 10 mM HEPES pH 7.4, 150 mM NaCl, 5 mM CaCl2, 5 mM MgCl2, 0.1% Tween-20 buffer (serum dilution buffer). Rat serum was thawed on ice and diluted 35-fold in serum dilution buffer. […]
50 mM Tris pH 7.4, 150 mM NaCl, 5 mM CaCl2, 0.1% Tween-20 buffer (washing buffer) and 100 μl of the serum-inhibitor samples were transferred onto the plate. […] The 490 nm absorbance values were recorded using a PerkinElmer EnSpire multimode plate reader. Four parallels were measured for each data point. […]

Substance: SGMI-2 (GSGEVTCEPGTTFKDKCNTCRCGSDGKSAVCTKLWCNQ; Synthetic protein of insect origin) [reference compound]
- inhibition of the lectin pathway in rat serum: completely inhibit

Substance: SEQ ID NO: 14: TFPI-D2 variant protein with inhibitor loop PCRAVKR (SEQ ID NO: 4) (KPDFCFLEEDPGPCRAVKRRYFYNNQTKQCERFKYGGCLGNMNNFETLEECKNICEDG; ends and bridges not checked; cysteine pairing not given here)
- inhibition of the lectin pathway in rat serum: completely inhibit
